Laboratory results from the NIST ThermoML archive (doi:10.1021/je030107c).
Numbers after ± are expanded uncertainties.

Experiments:
[1] = xn = mol fraction of the nth substance listed; conditions: 101.3 kPa, Liquid; for viscosity: Capillary tube (Ostwald / Ubbelohde) method; for speed of sound: Linear variable-path acoustic interferometer; for mass density: Pycnometric method
[2] = refractive index (Na D-line) (dimensionless); xn = mol fraction of the nth substance listed; conditions: 101.3 kPa, Liquid, Standard Abbe refractometry

C1COCCO1 [1,4-dioxane] + OCCO
Conditions | mass density, 298.15 K [kg/m3] | mass density, 303.15 K [kg/m3] | mass density, 308.15 K [kg/m3] | refractive index, 298.15 K | refractive index, 303.15 K | refractive index, 308.15 K | speed of sound, 298.15 K [m/s] | viscosity, 298.15 K [mPa·s] | viscosity, 303.15 K [mPa·s] | viscosity, 308.15 K [mPa·s]
[1], x1 = 0.1031 | 1100.6 ± 0.6 | 1096.6 ± 0.6 | 1092.8 ± 0.6 | – | – | – | 1620 ± 3 | 9.007 ± 0.062 | 7.262 ± 0.051 | 5.518 ± 0.04
[1], x1 = 0.2072 | 1090.6 ± 0.6 | 1086.4 ± 0.6 | 1082.4 ± 0.6 | – | – | – | 1577 ± 3 | 6.285 ± 0.045 | 5.149 ± 0.038 | 4.013 ± 0.03
[1], x1 = 0.3021 | 1082 ± 0.6 | 1077.6 ± 0.6 | 1073.1 ± 0.6 | – | – | – | 1537 ± 3 | 4.654 ± 0.035 | 3.849 ± 0.029 | 3.044 ± 0.023
[1], x1 = 0.4246 | 1071.1 ± 0.6 | 1066.5 ± 0.6 | 1061.7 ± 0.6 | – | – | – | 1485 ± 3 | 3.177 ± 0.024 | 2.68 ± 0.02 | 2.181 ± 0.017
[1], x1 = 0.5042 | 1064.5 ± 0.6 | 1059.7 ± 0.6 | 1054.7 ± 0.6 | – | – | – | 1456 ± 3 | 2.566 ± 0.019 | 2.184 ± 0.017 | 1.802 ± 0.014
[1], x1 = 0.5986 | 1056.8 ± 0.6 | 1051.7 ± 0.6 | 1046.8 ± 0.6 | – | – | – | 1426 ± 3 | 2.012 ± 0.015 | 1.728 ± 0.013 | 1.444 ± 0.011
[1], x1 = 0.6914 | 1049.6 ± 0.6 | 1044.5 ± 0.6 | 1039.5 ± 0.6 | – | – | – | 1400 ± 3 | 1.663 ± 0.013 | 1.447 ± 0.011 | 1.229 ± 0.01
[1], x1 = 0.7906 | 1042.4 ± 0.6 | 1037.1 ± 0.6 | 1031.8 ± 0.6 | – | – | – | 1381 ± 3 | 1.388 ± 0.011 | 1.226 ± 0.01 | 1.063 ± 0.008
[1], x1 = 0.8909 | 1035.2 ± 0.6 | 1029.9 ± 0.6 | 1024.5 ± 0.6 | – | – | – | 1369 ± 3 | 1.212 ± 0.01 | 1.081 ± 0.009 | 0.949 ± 0.008
[1], x1 = 1 | 1027.6 ± 0.6 | 1021.9 ± 0.6 | 1016.2 ± 0.6 | – | – | – | 1347 ± 3 | 1.166 ± 0.009 | 1.069 ± 0.008 | 0.984 ± 0.008
[2], x1 = 0.1031 | – | – | – | 1.4294 ± 0.0011 | 1.4279 ± 0.0011 | 1.4262 ± 0.0011 | – | – | – | –
[2], x1 = 0.2072 | – | – | – | 1.4284 ± 0.0011 | 1.4268 ± 0.0011 | 1.425 ± 0.0011 | – | – | – | –
[2], x1 = 0.3021 | – | – | – | 1.4275 ± 0.0011 | 1.4256 ± 0.0011 | 1.4236 ± 0.0011 | – | – | – | –
[2], x1 = 0.4246 | – | – | – | 1.426 ± 0.0011 | 1.424 ± 0.0011 | 1.4219 ± 0.0011 | – | – | – | –
[2], x1 = 0.5042 | – | – | – | 1.4248 ± 0.0011 | 1.4226 ± 0.0011 | 1.4204 ± 0.0011 | – | – | – | –
[2], x1 = 0.5986 | – | – | – | 1.4238 ± 0.0011 | 1.4216 ± 0.0011 | 1.4193 ± 0.0011 | – | – | – | –
[2], x1 = 0.6914 | – | – | – | 1.423 ± 0.0011 | 1.4207 ± 0.0011 | 1.4186 ± 0.0011 | – | – | – | –
[2], x1 = 0.7906 | – | – | – | 1.422 ± 0.0011 | 1.4196 ± 0.0011 | 1.4172 ± 0.0011 | – | – | – | –
[2], x1 = 0.8909 | – | – | – | 1.421 ± 0.0011 | 1.4187 ± 0.0011 | 1.4163 ± 0.0011 | – | – | – | –
[2], x1 = 1 | – | – | – | 1.4201 ± 0.0011 | 1.417 ± 0.0011 | 1.4143 ± 0.0011 | – | – | – | –
